Laboratory results as given in patent publication US12252488B2 (Nimbus Saturn, Inc., priority 2021, dated 2025).

The molecules below were run against T1, HPK1 (Homo sapiens, UniProt Q92918) (assay: HPK1 biochemical enzyme assay (microfluidic mobility shift assay)). Conditions: 1000 uM (1 mM) ATP; Caliper mobility shift; 1.5 nM HPK1; 30 min preincubation; read-out: HPK1 1000UMATP caliper IC50.
T1 construct: purchased Invitrogen
Outline: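 Microfluidic mobility-shift readout with 1.5 nM HPK1 in pH 7.4 buffer; compounds (ten-point curves, top 3 μM final) preincubated 30 min with enzyme/substrate. Reaction started with 1 mM ATP and 1 μM substrate plus 5 mM MgCl2, run 60 min at RT. IC50 values binned into activity classes.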

T1 sequence (Q92918 whole entry): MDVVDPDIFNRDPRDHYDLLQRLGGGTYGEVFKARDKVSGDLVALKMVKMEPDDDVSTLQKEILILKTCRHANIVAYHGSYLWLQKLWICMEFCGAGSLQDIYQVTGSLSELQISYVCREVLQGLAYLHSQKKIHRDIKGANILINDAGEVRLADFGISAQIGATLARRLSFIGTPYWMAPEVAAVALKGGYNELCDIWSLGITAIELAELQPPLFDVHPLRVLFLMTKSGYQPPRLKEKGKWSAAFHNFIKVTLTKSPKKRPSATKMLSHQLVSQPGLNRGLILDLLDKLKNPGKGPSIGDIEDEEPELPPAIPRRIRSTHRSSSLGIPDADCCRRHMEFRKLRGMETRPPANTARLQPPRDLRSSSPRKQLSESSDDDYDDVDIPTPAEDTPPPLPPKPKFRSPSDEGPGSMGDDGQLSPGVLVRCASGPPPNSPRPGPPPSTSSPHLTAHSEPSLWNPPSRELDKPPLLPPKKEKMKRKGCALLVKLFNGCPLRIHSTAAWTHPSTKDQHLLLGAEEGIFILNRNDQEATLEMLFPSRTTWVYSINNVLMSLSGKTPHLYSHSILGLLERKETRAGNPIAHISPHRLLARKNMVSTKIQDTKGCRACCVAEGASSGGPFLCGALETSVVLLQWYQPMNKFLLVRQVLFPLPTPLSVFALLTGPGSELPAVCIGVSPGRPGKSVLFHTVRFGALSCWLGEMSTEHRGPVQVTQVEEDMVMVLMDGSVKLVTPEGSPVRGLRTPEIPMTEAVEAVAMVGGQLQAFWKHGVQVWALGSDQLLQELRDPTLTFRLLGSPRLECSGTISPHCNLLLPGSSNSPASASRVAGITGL

SMILES	IC50
COc1cc(F)c(-c2cc(Nc3ccc(N4CCC(O)CC4)cn3)c3c(=O)[nH]ccc3n2)cc1CN1CCCCC1 [I-202, 2-[2-fluoro-4-methoxy-5-(1-piperidyl-methyl)phenyl]-4-[[5-(4-hydroxy-1-piperidyl)-1-2-pyridyl]amino]-6H-1,6-naphthyridin 5-one]	≤ 100 nM
O=c1[nH]ccc2nc(-c3ccc4c(c3F)CCC4O)cc(Nc3ccc(N4CCC(O)CC4)cn3)c12 (stereo not drawn) [I-203, 2-(4-fluoro-1-hydroxy-indan-5-yl)-4-[[5-(4-hydroxy-1-piperidyl)-2-pyridyl]amino]-6H-1,6-naphthyridin-5-one]	≤ 100 nM
COC1CCN(c2ccc(Nc3cc(-c4ccc(NC(=O)C5CCCCC5)cc4F)nc4cc[nH]c(=O)c34)nc2)CC1 [I-204, N-[3-fluoro-4-[4-[[5-(4-methoxy-1-piperidyl)-2-pyridyl]amino]-5-oxo-6H-1,6-naphthyridin-2-yl]phenyl] cyclohexane carboxamide]	≤ 100 nM
CC1(C(=O)Nc2ccc(-c3cc(Nc4ccc(N5CCC(O)CC5)cn4)c4c(=O)[nH]ccc4n3)c(F)c2)COC1 [I-205]	≤ 100 nM
COc1cc(-c2cc(Nc3ccc(N4CCC(O)CC4)cn3)c3c(=O)[nH]ccc3n2)c(F)cc1C(=O)N1CCCC1 [I-206, 2-[2-fluoro-5-methoxy-4-(pyrrolidine-1-carbonyl)phenyl]-4-[[5-(4-hydroxy-1-piperidyl)-2-pyridyl]amino]-6H-naphthyridin-5-one]	≤ 100 nM
O=C(Nc1ccc(-c2cc(Nc3ccc(N4C[C@H]5COC[C@H]5C4)cn3)c3c(=O)[nH]ccc3n2)c(F)c1)C1CCCCC1 [I-207, N-[4-[4-[[5-[(3aR,6aS)-1,3,3a,4,6,6a-hexahydro-furo[3,4-c]pyrrol-5-yl]-2-pyridyl]amino]-5-oxo-6H-1,6-naphthyridin-2-yl]-3-fluoro-phenyl] cyclohexane-carboxamide]	≤ 100 nM
COc1cc(-c2cc(Nc3ccc(N4CCNCC4)cn3)c3c(=O)[nH]ccc3n2)c(F)cc1NC(=O)C1CCCCC1 [I-208, N-[5-fluoro-2-methoxy-4-[5-oxo-4-[(5-piperazin-1-yl-2-pyridyl)amino]-6H-1,6-naphthyridin-2-yl]phenyl] cyclohexane carboxamide]	100 to 1000 nM
COc1cc(-c2cc(Nc3ccc(N4CCC(OC)CC4)cn3)c3c(=O)[nH]ccc3n2)c(F)cc1C(=O)N1CCCCC1 [I-209, 2-[2-fluoro-5-methoxy-4-(piperidine-1-carbonyl)phenyl]-4-[[5-(4-methoxy-1-piperidyl)-2-pyridyl]amino]-6H-1,6-naphthyridin-5-one]	100 to 1000 nM
CN(C(=O)C1(C)COC1)c1ccc(-c2cc(Nc3ccc(N4CCC(O)CC4)cn3)c3c(=O)[nH]ccc3n2)c(F)c1 [I-210, N-[3-fluoro-4-[4-[[5-(4-hydroxy-1-piperidyl)-2-pyridyl]amino]-5-oxo-6H-1,6-naphthyridin-2-yl]phenyl]-N,3-dimethyl-oxetane-3-carboxamide]	≤ 100 nM
CC1(C(=O)Nc2ccc(-c3cc(Nc4ccc(N5CCC(O)CC5)cn4)c4c(=O)[nH]ccc4n3)c(F)c2)CCC1 [I-211, N-[3-fluoro-4-[4-[[5-(4-hydroxy-1-piperidyl)-2-pyridyl]amino]-5-oxo-6H-1,6-naphthyridin-2-yl]phenyl]-1-methyl-cyclobutane-carboxamide]	> 1000 nM
O=C(Nc1ccc(-c2cc(Nc3ccc(C4CC4)cn3)c3c(=O)[nH]ccc3n2)c(F)c1)C1CCCCC1 [I-212, N-[4-[4-[(5-cyclopropyl-2-pyridyl)amino]-5-oxo-6H-1,6-naphthyridin-2-yl]-3-fluoro-phenyl] cyclohexane-carboxamide]	100 to 1000 nM
CN1C(=O)Cc2cc(-c3cc(Nc4ccc(N5CCC(O)CC5)cn4)c4c(=O)[nH]ccc4n3)cnc21 [I-213, 4-[[5-(4-hydroxy-1-piperidyl)-2-pyridyl]amino]-2-(1-methyl-2-oxo-3H-pyrrolo[2,3-b]pyridin-5-yl)-6H-1,6-naphthyridin-5-one]	100 to 1000 nM
CN(C(=O)C1(C)CC1)c1ccc(-c2cc(Nc3ccc(N4CCC(O)CC4)cn3)c3c(=O)[nH]ccc3n2)c(F)c1 [I-214, N-[3-fluoro-4-[4-[[5-(4-hydroxy-1-piperidyl)-2-pyridyl]amino]-5-oxo-6H-1,6-naphthyridin-2-yl]phenyl]-N,1-dimethyl-cyclopropane-carboxamide]	100 to 1000 nM
COc1cc(-c2cc(Nc3ccc(N4CCC(O)CC4)cn3)c3c(=O)[nH]ccc3n2)c(F)cc1CN(C)C [I-215, 2-(4-((Dimethylamino)methyl)-2-fluoro-5-methoxyphenyl)-4-((5-(4-hydroxypiperidin-1-yl)pyridin-2-yl)amino)-1,6-naphthyridin-5(6H)-one]	100 to 1000 nM
COc1cc(-c2cc(Nc3ccc(N4CCC(O)CC4)cn3)c3c(=O)[nH]ccc3n2)c(F)cc1CN1CCCCC1 [I-216, 2-[2-fluoro-5-methoxy-4-(1-piperidyl-methyl)phenyl]-4-[[5-(4-hydroxy-1-piperidyl)-2-pyridyl]amino]-6H-1,6-naphthyridin-5-one]	> 1000 nM
CNCc1ccc(F)c(-c2cc(Nc3ccc(N4CCC(O)CC4)cn3)c3c(=O)[nH]ccc3n2)c1 [I-217, 2-[2-fluoro-5-(methyl-amino-methyl)phenyl]-4-[[5-(4-hydroxy-1-piperidyl)-2-pyridyl]amino]-6H-1,6-naphthyridin-5-one]	100 to 1000 nM
CNCc1ccc(-c2cc(Nc3ccc(N4CCC(O)CC4)cn3)c3c(=O)[nH]ccc3n2)c(F)c1 [I-218, 2-[2-fluoro-4-(methyl-amino-methyl)phenyl]-4-[[5-(4-hydroxy-1-piperidyl)-2-pyridyl]amino]-6H-naphthyridin-5-one]	≤ 100 nM
CC1(C(=O)Nc2ccc(-c3cc(Nc4ccc(N5CCNCC5)cn4)c4c(=O)[nH]ccc4n3)c(F)c2)CCC1 [I-219, N-[3-fluoro-4-[5-oxo-4-[(5-piperazin-1-yl-2-pyridyl)amino]-6H-1,6-naphthyridin-2-yl]phenyl]-1-methyl-cyclobutane-carboxamide]	≤ 100 nM
O=c1[nH]ccc2nc(-c3c(F)ccc4c3CCNC4)cc(Nc3ccc(N4CCC(O)CC4)cn3)c12 [I-220, 2-(6-fluoro-1,2,3,4-tetrahydro-isoquinolin-5-yl)-4-[[5-(4-hydroxy-1-piperidyl)-2-pyridyl]amino]-6H-1,6-naphthyridin-5-one]	≤ 100 nM
CNC1(c2ccc(F)c(-c3cc(Nc4ccc(N5CCC(O)CC5)cn4)c4c(=O)[nH]ccc4n3)c2)CC1 [I-221, 2-[2-fluoro-5-[1-(methyl-amino)cyclopropyl]phenyl]-4-[[5-(4-hydroxy-1-piperidyl)-2-pyridyl]amino]-6H-1,6-naphthyridin-5-one]	100 to 1000 nM
O=C(Nc1ccc(-c2cc(Nc3ccc(N4CCC(O)CC4)cn3)c3c(=O)[nH]ccc3n2)c(F)c1)C1(C(F)F)CC1 [I-222]	≤ 100 nM
CCC1(C(=O)Nc2ccc(-c3cc(Nc4ccc(N5CCC(O)CC5)cn4)c4c(=O)[nH]ccc4n3)c(F)c2)CC1 [I-223, 1-ethyl-N-[3-fluoro-4-[4-[[5-(4-hydroxy-1-piperidyl)-2-pyridyl]amino]-5-oxo-6H-1,6-naphthyridin-2-yl]phenyl] cyclopropane-carboxamide]	≤ 100 nM
CNC1CCCc2c1ccc(F)c2-c1cc(Nc2ccc(N3CCC(O)CC3)cn2)c2c(=O)[nH]ccc2n1 (stereo not drawn) [I-224, 2-[6-fluoro-1-(methyl-amino)tetralin-5-yl]-4-[[5-(4-hydroxy-1-piperidyl)-2-pyridyl]amino]-6H-1,6-naphthyridin-5-one]	100 to 1000 nM
COc1cc(-c2cc(Nc3cc(C4CCOC4)[nH]n3)c3c(=O)[nH]ccc3n2)c(F)cc1C(=O)N1CCCCC1 (stereo not drawn) [I-225, 2-[2-fluoro-5-methoxy-4-(piperidine-1-carbonyl)phenyl]-4-[(5-THF-3-yl-1H-pyrazol-3-yl)amino]-6H-1,6-naphthyridin-5-one]	> 1000 nM
O=C1Cc2cc(-c3cc(Nc4ccc(N5CCC(O)CC5)cn4)c4c(=O)[nH]ccc4n3)cnc2N1 [I-226, 4-[[5-(4-hydroxy-1-piperidyl)-2-pyridyl]amino]-2-(2-oxo-1,3-dihydro-pyrrolo[2,3-b]pyridin-5-yl)-6H-1,6-naphthyridin-5-one]	≤ 100 nM
CN1CCN(c2ccc(Nc3cc(-c4cnc5c(c4)CC(=O)N5)nc4cc[nH]c(=O)c34)nc2)CC1 [I-227, 4-[[5-(4-methyl-piperazin-1-yl)-2-pyridyl]amino]-2-(2-oxo-1,3-dihydro-pyrrolo[2,3-b]pyridin-5-yl)-6H-1,6-naphthyridin-5-one]	≤ 100 nM
CCn1ccc(Nc2cc(-c3cc(OC)c(C(=O)N4CCCCC4)cc3F)nc3cc[nH]c(=O)c23)nc1=O [I-228, 4-((1-ethyl-2-oxo-1,2-dihydropyrimidin-4-yl)amino)-2-(2-fluoro-5-methoxy-4-(piperidine-1-carbonyl)phenyl)-1,6-naphthyridin-5(6H)-one]	≤ 100 nM
COc1cc(-c2cc(Nc3ccc(N4C[C@H]5COC[C@H]5C4)cn3)c3c(=O)[nH]ccc3n2)c(F)cc1C(=O)N1CCCCC1 [I-229, 4-[[5-[(3aR,6aS)-1,3,3a,4,6,6a-hexahydro-furo[3,4-c]pyrrol-5-yl]-2-pyridyl]amino]-2-[2-fluoro-5-methoxy-4-(piperidine-1-carbonyl)phenyl]-6H-1,6-naphthyridin-5-one]	100 to 1000 nM
COc1cc(-c2cc(Nc3ccc(N4CCC(O)CC4)cn3)c3c(=O)[nH]ccc3n2)c(F)cc1C(=O)N(C)C [I-230, 5-fluoro-4-[4-[[5-(4-hydroxy-1-piperidyl)-2-pyridyl]amino]-5-oxo-6H-1,6-naphthyridin-2-yl]-2-methoxy-N,N-dimethyl-benzamide]	≤ 100 nM
O=C(c1cc(F)c(-c2cc(Nc3ccc(N4CCC(O)CC4)cn3)c3c(=O)[nH]ccc3n2)cc1F)N1CCCCC1 [I-231, 2-[2,5-difluoro-4-(piperidine-1-carbonyl)phenyl]-4-[[5-(4-hydroxy-1-piperidyl)-2-pyridyl]amino]-6H-1,6-naphthyridin-5-one]	100 to 1000 nM
